We go through 15 compounds from patent US20200060276A1, “THIAZOLE COMPOUND AND HERBICIDE” (OAT Agrio Co., Ltd., priority 2017, published 2020).

Holding throughout (format): in vivo
Experiment [1] deals with Echinochloa crus-galli (L.) P. Beauv. var. formosensis Ohwi. Description: Test for Herbicidal Effect in Flooding Treatment (#1), ECHDG. The note with it: for ECHDG #1 herbicidal effect (growth inhibition rating 0-5): flooding treatment #1; for ECHDG #1 herbicidal effect (growth inhibition grade): flooding treatment at seeding, dose 2 kg/ha, visual observation on day 21. How it is done:
(§1) (#1) Test for Herbicidal Effect in Flooding Treatment: Styrol cups each having an opening diameter of 8 cm (about 52 cm^2) were respectively filled with soil (45 ml) which had been passed through a sieve (2 mm). Water (about 115 ml) was mixed with the soil such that the soil was flooded. After the soil stood still for 24 hours, Monochoria vaginalis, Echinochloa crus-galli (L.) P. Beauv. var. formosensis Ohwi, Cyperus difformis (umbrella sedge), and Scirpus juncoides were seeded. Each of the compounds of the present invention was dissolved in acetone, and the obtained product was then diluted with water containing Tween 80®. Each of the resultant chemical solutions was dropped on the entire surface of an associated one of treatment sections, so that each section was treated with 1 ml of the respective chemical solution (a dose of 2 kg/ha). After the treatment, the plants were grown in a glasshouse. On day 21, a survey was conducted on the herbicidal activity by visual observation, and evaluation was made according to the following criteria. 0: Growth inhibition effect is less than 10%. 1: Growth inhibition effect is equal to or greater than 10%, and less than 30%. 2; Growth inhibition effect is equal to or greater than 30%, and less than 50%. 3: Growth inhibition effect equal to or greater than 50%, and less than 70%. 4: Growth inhibition effect is equal to or greater than 70%, and less than 90%. 5: Growth inhibition effect is equal to or greater than 90%, or complete withering is achieved. ECHDG=Echinochloa crus-galli (L.) P. Beauv. var. formosensis Ohwi, MONVA=Monochoria vaginalis, SCIJU=Scirpus juncoides, CYMIC=Cyperus microiria.

The test system of experiment [2] is Monochoria vaginalis. The experiment is described as follows: Test for Herbicidal Effect in Flooding Treatment (#1), MONVA. The note with it: for MONVA #1 herbicidal effect (growth inhibition grade): flooding treatment at seeding, dose 2 kg/ha, visual observation on day 21. Here is the method: as §1
In experiment [3] the test system is Scirpus juncoides. Description: Test for Herbicidal Effect in Flooding Treatment (#1), SCIJU. To be noted: for SCIJU #1 herbicidal effect (growth inhibition rating 0-5): flooding treatment #1; for SCIJU #1 herbicidal effect (growth inhibition grade): flooding treatment at seeding, dose 2 kg/ha, visual observation on day 21. Here is the method:
as §1

Experiment [4] concerns Echinochloa crus-galli (L.) P. Beauv. var. formosensis Ohwi. The experiment is described as follows: Test for Herbicidal Effect in Flooding Treatment (#2), ECHDG at 2-2.5 leaf stage. To be noted: for ECHDG (2-2.5L) #2 herbicidal effect (growth inhibition rating 0-5): flooding treatment #2, 2-2.5 leaf stage; for ECHDG (2-2.5L) #2 herbicidal effect (growth inhibition grade): flooding treatment at 2-2.5 leaf stage, dose 0.2 kg/ha, visual observation on day 21. How it is done: (#2) Test for Herbicidal Effect in Flooding Treatment: Styrol cups each having an opening diameter of 13 cm (about 130 cm^2) were respectively filled with muddy soil (500 ml). Water (about 300 ml) was mixed with the soil such that the soil was flooded. After the soil stood still for 24 hours, Echinochloa crus-galli (L.) P. Beauv. var. formosensis Ohwi was seeded. When the Echinochloa crus-galli (L.) P. Beauv. var. formosensis Ohwi grew to reach 2-2.5 leaf stage, chemical solutions were dropped on the entire surface of treatment sections, so that each section is treated with 1 ml of the respective chemical solution (a dose of 0.2 kg/ha). Each of the chemical solutions was prepared by dissolving associated one of the compounds of the present invention in acetone, followed by dilution with water containing Tween 80 g. After the treatment, the plants were grown in a glasshouse. On day 21, a survey was conducted on the herbicidal activity by visual observation, and evaluation was made according to the following criteria. 0: Growth inhibition effect is less than 10%. 1: Growth inhibition effect is equal to or greater than 10%, and less than 30%. 2; Growth inhibition effect is equal to or greater than 30%, and less than 50%. 3: Growth inhibition effect equal to or greater than 50%, and less than 70%. 4: Growth inhibition effect is equal to or greater than 70%, and less than 90%. 5: Growth inhibition effect is equal to or greater than 90%, or complete withering is achieved. ECHDG=Echinochloa crus-galli (L.) P. Beauv. var. formosensis Ohwi, MONVA=Monochoria vaginalis, SCIJU=Scirpus juncoides, CYMIC=Cyperus microiria. The herbicidal activity of the following comparative compounds A and B (the compounds disclosed Japanese Unexamined Patent Publication No. 2003-096059) were evaluated in a manner pursuant to Test Example 1. (#2).

Structures are written as SMILES.

With `[O-][S+](Cc1c(F)cccc1OCC(F)F)c1ncc(Cl)s1` (stereo not drawn) [Compound 1B-7], the “ECHDG #1 herbicidal effect (growth inhibition rating 0-5)” value in experiment [1] is recorded as 5 (Growth inhibition effect is equal to or greater than 90%, or complete withering is achieved). Further, the “MONVA #1 herbicidal effect (growth inhibition rating 0-5)” value in experiment [2] (flooding treatment #1) is 5 (Growth inhibition effect is equal to or greater than 90%, or complete withering is achieved). The “SCIJU #1 herbicidal effect (growth inhibition rating 0-5)” value in experiment [3] is 5 (Growth inhibition effect is equal to or greater than 90%, or complete withering is achieved).
Regarding `O=S(=O)(Cc1c(OCC(F)F)cccc1OCC(F)F)c1ncc(Cl)s1` [Compound 1C-129], in experiment [1], the “ECHDG #1 herbicidal effect (growth inhibition grade)” value is 5 (Growth inhibition effect is equal to or greater than 90%, or complete withering is achieved). Besides, the “MONVA #1 herbicidal effect (growth inhibition grade)” value in experiment [2] is on record as 5 (Growth inhibition effect is equal to or greater than 90%, or complete withering is achieved). For the same compound, the “SCIJU #1 herbicidal effect (growth inhibition grade)” value in experiment [3] is 4 (Growth inhibition effect is equal to or greater than 70%, and less than 90%).
`CCOC(=O)C(F)(F)Oc1cccc(Cl)c1CS(=O)(=O)c1ncc(Cl)s1` [Compound 1C-64]: in experiment [1], the “ECHDG #1 herbicidal effect (growth inhibition grade)” value is on record as 5 (Growth inhibition effect is equal to or greater than 90%, or complete withering is achieved). For the same compound, the “MONVA #1 herbicidal effect (growth inhibition grade)” value in experiment [2] is given as 5 (Growth inhibition effect is equal to or greater than 90%, or complete withering is achieved). For the same compound, in experiment [3], the “SCIJU #1 herbicidal effect (growth inhibition grade)” value is reported as 5 (Growth inhibition effect is equal to or greater than 90%, or complete withering is achieved).
For the compound `C#CCN(C)c1cccc(F)c1CS(=O)(=O)c1ncc(Cl)s1` [Compound 1C-169], the “ECHDG #1 herbicidal effect (growth inhibition grade)” value in experiment [1] is on record as 5 (Growth inhibition effect is equal to or greater than 90%, or complete withering is achieved). Besides, in experiment [2], the “MONVA #1 herbicidal effect (growth inhibition grade)” value was 5 (Growth inhibition effect is equal to or greater than 90%, or complete withering is achieved). Further, the “SCIJU #1 herbicidal effect (growth inhibition grade)” value in experiment [3] is recorded as 5 (Growth inhibition effect is equal to or greater than 90%, or complete withering is achieved).
As for `CC(c1c(Cl)cccc1OCCC(F)(F)F)S(=O)(=O)c1ncc(Cl)s1` (racemic) [Compound 1C-150], in experiment [1], the “ECHDG #1 herbicidal effect (growth inhibition grade)” value is recorded as 5 (Growth inhibition effect is equal to or greater than 90%, or complete withering is achieved). Moreover, in experiment [2], the “MONVA #1 herbicidal effect (growth inhibition grade)” value is listed as 5 (Growth inhibition effect is equal to or greater than 90%, or complete withering is achieved). The “SCIJU #1 herbicidal effect (growth inhibition grade)” value in experiment [3] was 5 (Growth inhibition effect is equal to or greater than 90%, or complete withering is achieved).
For the compound `[O-][S+](Cc1c(F)cccc1OC(F)(F)F)c1ncc(Cl)s1` (stereo not drawn) [Compound 1B-5], in experiment [1], the “ECHDG #1 herbicidal effect (growth inhibition rating 0-5)” value was 5 (Growth inhibition effect is equal to or greater than 90%, or complete withering is achieved). Further, in experiment [3], the “SCIJU #1 herbicidal effect (growth inhibition rating 0-5)” value is listed as 5 (Growth inhibition effect is equal to or greater than 90%, or complete withering is achieved). For the same compound, the “ECHDG (2-2.5L) #2 herbicidal effect (growth inhibition rating 0-5)” value in experiment [4] is given as 5 (Growth inhibition effect is equal to or greater than 90%, or complete withering is achieved).
`COc1cccc(Cl)c1CS(=O)(=O)c1ncc(Br)s1` [Compound 1C-151]: the “ECHDG #1 herbicidal effect (growth inhibition grade)” value in experiment [1] is recorded as 5 (Growth inhibition effect is equal to or greater than 90%, or complete withering is achieved). In addition, the “SCIJU #1 herbicidal effect (growth inhibition grade)” value in experiment [3] is 5 (Growth inhibition effect is equal to or greater than 90%, or complete withering is achieved). Besides, in experiment [4], the “ECHDG (2-2.5L) #2 herbicidal effect (growth inhibition grade)” value is on record as 5 (Growth inhibition effect is equal to or greater than 90%, or complete withering is achieved).
For `CC(C)(c1c(F)cccc1OC(F)F)S(=O)(=O)c1ncc(Cl)s1` [Compound 1C-141], the “ECHDG #1 herbicidal effect (growth inhibition grade)” value in experiment [1] was 5 (Growth inhibition effect is equal to or greater than 90%, or complete withering is achieved). The “SCIJU #1 herbicidal effect (growth inhibition grade)” value in experiment [3] is recorded as 5 (Growth inhibition effect is equal to or greater than 90%, or complete withering is achieved). The “ECHDG (2-2.5L) #2 herbicidal effect (growth inhibition grade)” value in experiment [4] was 4 (Growth inhibition effect is equal to or greater than 70%, and less than 90%).
Consider `COCOc1cccc(F)c1CS(=O)(=O)c1ncc(Cl)s1` [Compound 1C-37], for which the “ECHDG #1 herbicidal effect (growth inhibition grade)” value in experiment [1] is on record as 5 (Growth inhibition effect is equal to or greater than 90%, or complete withering is achieved). In experiment [3], the “SCIJU #1 herbicidal effect (growth inhibition grade)” value is reported as 5 (Growth inhibition effect is equal to or greater than 90%, or complete withering is achieved). Further, in experiment [4], the “ECHDG (2-2.5L) #2 herbicidal effect (growth inhibition grade)” value is reported as 5 (Growth inhibition effect is equal to or greater than 90%, or complete withering is achieved).
Take `O=S(=O)(Cc1c(F)cccc1OC(F)(F)F)c1ncc(Br)s1` [Compound 1C-158]: the “ECHDG #1 herbicidal effect (growth inhibition grade)” value in experiment [1] was 5 (Growth inhibition effect is equal to or greater than 90%, or complete withering is achieved). In addition, the “SCIJU #1 herbicidal effect (growth inhibition grade)” value in experiment [3] is 5 (Growth inhibition effect is equal to or greater than 90%, or complete withering is achieved). Also, the “ECHDG (2-2.5L) #2 herbicidal effect (growth inhibition grade)” value in experiment [4] is given as 5 (Growth inhibition effect is equal to or greater than 90%, or complete withering is achieved).
On to `O=S(=O)(Cc1c(Cl)cccc1OC(F)(F)F)c1ncc(Br)s1` [Compound 1C-159], for which the “ECHDG #1 herbicidal effect (growth inhibition grade)” value in experiment [1] is recorded as 5 (Growth inhibition effect is equal to or greater than 90%, or complete withering is achieved). The “SCIJU #1 herbicidal effect (growth inhibition grade)” value in experiment [3] is 5 (Growth inhibition effect is equal to or greater than 90%, or complete withering is achieved). For the same compound, the “ECHDG (2-2.5L) #2 herbicidal effect (growth inhibition grade)” value in experiment [4] was 5 (Growth inhibition effect is equal to or greater than 90%, or complete withering is achieved).
As to `[O-][S+](Cc1c(OC(F)(F)C(F)(F)F)cccc1C(F)(F)F)c1ncc(Br)s1` (stereo not drawn) [Compound 1B-25], the “ECHDG #1 herbicidal effect (growth inhibition rating 0-5)” value in experiment [1] is 5 (Growth inhibition effect is equal to or greater than 90%, or complete withering is achieved). Besides, the “SCIJU #1 herbicidal effect (growth inhibition rating 0-5)” value in experiment [3] is reported as 5 (Growth inhibition effect is equal to or greater than 90%, or complete withering is achieved). In addition, the “ECHDG (2-2.5L) #2 herbicidal effect (growth inhibition rating 0-5)” value in experiment [4] is 5 (Growth inhibition effect is equal to or greater than 90%, or complete withering is achieved).
For `[O-][S+](Cc1ccccc1OC(F)F)c1ncc(Br)s1` (stereo not drawn) [Compound 1B-18], the “ECHDG #1 herbicidal effect (growth inhibition rating 0-5)” value in experiment [1] is 5 (Growth inhibition effect is equal to or greater than 90%, or complete withering is achieved). Further, the “SCIJU #1 herbicidal effect (growth inhibition rating 0-5)” value in experiment [3] is listed as 5 (Growth inhibition effect is equal to or greater than 90%, or complete withering is achieved). For the same compound, in experiment [4], the “ECHDG (2-2.5L) #2 herbicidal effect (growth inhibition rating 0-5)” value is 5 (Growth inhibition effect is equal to or greater than 90%, or complete withering is achieved).
In the case of `[O-][S+](Cc1c(F)cccc1OC(F)(F)F)c1ncc(Br)s1` (stereo not drawn) [Compound 1B-21], the “ECHDG #1 herbicidal effect (growth inhibition rating 0-5)” value in experiment [1] is recorded as 5 (Growth inhibition effect is equal to or greater than 90%, or complete withering is achieved). Further, the “SCIJU #1 herbicidal effect (growth inhibition rating 0-5)” value in experiment [3] is reported as 5 (Growth inhibition effect is equal to or greater than 90%, or complete withering is achieved). Moreover, the “ECHDG (2-2.5L) #2 herbicidal effect (growth inhibition rating 0-5)” value in experiment [4] was 5 (Growth inhibition effect is equal to or greater than 90%, or complete withering is achieved).
Regarding `O=S(=O)(Cc1ccc(OCc2ccccc2)cc1)c1ncc(Cl)s1` [Compound 1C-120], the “ECHDG #1 herbicidal effect (growth inhibition grade)” value in experiment [1] is reported as 5 (Growth inhibition effect is equal to or greater than 90%, or complete withering is achieved). Besides, in experiment [3], the “SCIJU #1 herbicidal effect (growth inhibition grade)” value is 4 (Growth inhibition effect is equal to or greater than 70%, and less than 90%). For the same compound, the “ECHDG (2-2.5L) #2 herbicidal effect (growth inhibition grade)” value in experiment [4] is 2 (Growth inhibition effect is equal to or greater than 30%, and less than 50%).
